Reference: patent US11572369B2, “Bicyclic pyridine compositions and methods of using the same for cancer therapy” (UNIVERSITY OF SOUTH CAROLINA, priority 2019, dated 2023)

Key:
Experiment in all cases: KINOMEscan
Format in all cases: binding
Conditions in all cases: 2000 nM
IKK-alpha = target: T1, IKK-alpha (Homo sapiens, UniProt O15111)
T1 construct: DNA label (qPCR read-out); purchased KINOMEscan (DiscoveRx) ScanMAX panel

DDR2 = target: T2, DDR2 (Homo sapiens, UniProt Q16832)
T2 construct: DNA label (qPCR read-out); purchased KINOMEscan (DiscoveRx) panel
T2 sequence (Q16832 22-855): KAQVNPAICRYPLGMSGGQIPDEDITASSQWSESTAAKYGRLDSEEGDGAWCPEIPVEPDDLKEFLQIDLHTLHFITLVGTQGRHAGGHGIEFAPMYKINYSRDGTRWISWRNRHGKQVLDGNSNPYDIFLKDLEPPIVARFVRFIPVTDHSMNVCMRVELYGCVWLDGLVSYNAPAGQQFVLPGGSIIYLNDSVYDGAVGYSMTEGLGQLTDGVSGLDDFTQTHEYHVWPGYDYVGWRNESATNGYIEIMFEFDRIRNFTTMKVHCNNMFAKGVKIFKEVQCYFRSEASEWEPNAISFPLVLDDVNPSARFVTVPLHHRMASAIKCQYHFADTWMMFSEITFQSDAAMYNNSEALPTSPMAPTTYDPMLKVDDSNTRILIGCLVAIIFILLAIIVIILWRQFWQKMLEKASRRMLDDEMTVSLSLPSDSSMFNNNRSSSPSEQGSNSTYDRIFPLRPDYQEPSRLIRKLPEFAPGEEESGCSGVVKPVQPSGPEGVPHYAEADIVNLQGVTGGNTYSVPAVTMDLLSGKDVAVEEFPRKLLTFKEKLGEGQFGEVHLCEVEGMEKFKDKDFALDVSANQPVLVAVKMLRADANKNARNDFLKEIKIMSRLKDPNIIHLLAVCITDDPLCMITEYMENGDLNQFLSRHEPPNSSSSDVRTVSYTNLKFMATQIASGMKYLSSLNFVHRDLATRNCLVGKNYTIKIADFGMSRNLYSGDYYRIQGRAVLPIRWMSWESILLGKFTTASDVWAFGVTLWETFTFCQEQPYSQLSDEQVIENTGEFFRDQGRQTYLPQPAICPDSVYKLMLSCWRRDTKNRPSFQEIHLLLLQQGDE

SRC = target: T3, SRC (Homo sapiens, UniProt P12931)
T3 construct: purchased KINOMEscan (DiscoveRx)

TNK2 = target: T4, TNK2 (Homo sapiens, UniProt Q07912)
T4 construct: DNA label (qPCR read-out); purchased KINOMEscan (DiscoveRx) ScanMAX panel

PIM2 = target: T5, PIM2 (Homo sapiens, UniProt Q9P1W9)
T5 construct: DNA label (qPCR read-out); purchased KINOMEscan (DiscoveRx) panel

KIT (D816H) = target: T6, KIT (D816H) (Homo sapiens, UniProt P10721, D816H)
T6 construct: DNA label (for qPCR read-out); purchased DiscoveRx (KINOMEscan scanMAX panel)

MYLK4 = target: T7, MYLK4 (Homo sapiens, UniProt Q86YV6)
T7 construct: DNA label (for qPCR read-out); purchased KINOMEscan scanMAX panel (DiscoveRx)

AKT3 = target: T8, AKT3 (Homo sapiens, UniProt Q9Y243)
T8 construct: purchased DiscoveRx (KINOMEscan scanMAX panel, service)

NIK = target: T9, NIK (Homo sapiens, UniProt Q99558)
T9 construct: DNA label (qPCR read-out); purchased KINOMEscan (ScanMAX panel service)

BMPR1B = target: T10, BMPR1B (Homo sapiens, UniProt O00238)
T10 construct: DNA label (for qPCR read-out); purchased KINOMEscan scanMAX panel (DiscoveRx)

PIKFYVE = target: T11, PIKFYVE (Homo sapiens, UniProt Q9Y2I7)
T11 construct: DNA label; purchased DiscoveRx (KINOMEscan scanMAX panel)

SGK3 = target: T12, SGK3 (Homo sapiens, UniProt Q96BR1)
T12 construct: purchased KINOMEscan (DiscoveRx)

CSNK1G2 = target: T13, CSNK1G2 (Homo sapiens, UniProt P78368)
T13 construct: DNA label; purchased DiscoveRx (KINOMEscan scanMAX panel)

CLK2 = target: T14, CLK2 (Homo sapiens, UniProt P49760)
T14 construct: DNA label (for qPCR read-out); purchased DiscoveRx (KINOMEscan scanMAX service)

EGFR = target: T15, EGFR (Homo sapiens, UniProt P00533)
T15 construct: purchased DiscoveRx (KINOMEscan scanMAX panel)

MELK = target: T16, MELK (Homo sapiens, UniProt Q14680)
T16 construct: purchased DiscoveRx (KINOMEscan scanMAX panel, service)
T16 sequence (Q14680 whole entry): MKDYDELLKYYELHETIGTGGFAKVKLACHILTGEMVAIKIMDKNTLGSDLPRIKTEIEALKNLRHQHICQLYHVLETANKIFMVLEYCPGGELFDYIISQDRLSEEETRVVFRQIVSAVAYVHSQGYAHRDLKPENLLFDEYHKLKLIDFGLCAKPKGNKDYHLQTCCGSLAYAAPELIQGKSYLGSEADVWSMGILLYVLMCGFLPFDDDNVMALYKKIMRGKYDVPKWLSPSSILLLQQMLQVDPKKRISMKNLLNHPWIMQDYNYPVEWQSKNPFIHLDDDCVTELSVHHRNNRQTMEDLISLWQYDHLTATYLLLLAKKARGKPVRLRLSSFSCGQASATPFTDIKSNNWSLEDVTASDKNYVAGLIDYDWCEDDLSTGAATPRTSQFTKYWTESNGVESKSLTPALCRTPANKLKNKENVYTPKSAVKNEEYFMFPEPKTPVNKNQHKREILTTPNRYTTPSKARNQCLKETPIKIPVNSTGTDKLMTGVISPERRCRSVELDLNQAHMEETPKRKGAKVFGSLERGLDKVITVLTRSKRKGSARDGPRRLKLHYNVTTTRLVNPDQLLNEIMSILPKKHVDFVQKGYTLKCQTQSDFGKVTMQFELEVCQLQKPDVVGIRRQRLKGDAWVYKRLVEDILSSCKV

MEK3 = target: T17, MEK3 (Homo sapiens, UniProt P46734)
T17 construct: purchased DiscoveRx (KINOMEscan scanMAX panel, service)
T17 sequence (P46734 whole entry): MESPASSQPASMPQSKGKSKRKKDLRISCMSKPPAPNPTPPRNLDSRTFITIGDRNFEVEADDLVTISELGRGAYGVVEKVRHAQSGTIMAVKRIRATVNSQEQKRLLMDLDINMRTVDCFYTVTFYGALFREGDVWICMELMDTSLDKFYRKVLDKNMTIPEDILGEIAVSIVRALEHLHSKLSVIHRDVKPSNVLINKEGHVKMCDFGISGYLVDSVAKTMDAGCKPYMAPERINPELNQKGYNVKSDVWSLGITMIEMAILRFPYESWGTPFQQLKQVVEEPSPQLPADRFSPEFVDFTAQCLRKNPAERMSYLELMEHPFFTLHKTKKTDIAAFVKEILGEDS

TTK = target: T18, TTK (Homo sapiens, UniProt P33981)
T18 construct: DNA label (for qPCR read-out); purchased DiscoveRx (KINOMEscan scanMAX panel)

TIE1 = target: T19, TIE1 (Homo sapiens, UniProt P35590)
T19 construct: DNA label (qPCR read-out); purchased KINOMEscan (DiscoveRx) ScanMAX panel

SgK110 = target: T20, SgK110 (Homo sapiens, UniProt P0C264)
T20 construct: purchased DiscoveRx (KINOMEscan scanMAX panel)
T20 sequence (P0C264 whole entry): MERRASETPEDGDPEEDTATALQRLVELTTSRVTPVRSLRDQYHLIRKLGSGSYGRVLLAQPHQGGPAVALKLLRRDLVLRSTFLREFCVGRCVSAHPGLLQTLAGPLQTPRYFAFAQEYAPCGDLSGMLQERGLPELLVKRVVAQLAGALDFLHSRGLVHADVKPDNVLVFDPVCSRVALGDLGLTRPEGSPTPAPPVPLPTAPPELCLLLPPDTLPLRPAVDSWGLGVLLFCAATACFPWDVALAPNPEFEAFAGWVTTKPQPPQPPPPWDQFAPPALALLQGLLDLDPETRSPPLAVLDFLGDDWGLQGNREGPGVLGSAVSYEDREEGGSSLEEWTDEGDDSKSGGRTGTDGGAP

CSNK1G3 = target: T21, CSNK1G3 (Homo sapiens, UniProt Q9Y6M4)
T21 construct: DNA label; purchased DiscoveRx (KINOMEscan scanMAX panel)

[1] = target: ABL1(Q252H)-phosphorylated (Homo sapiens, UniProt P00519, Q252H)
LIMK2 = target: T22, LIMK2 (Homo sapiens, UniProt P53671)
T22 construct: purchased KINOMEscan (DiscoveRx) panel service

BRSK1 = target: T23, BRSK1 (Homo sapiens, UniProt Q8TDC3)
T23 construct: DNA label (for qPCR read-out); purchased KINOMEscan scanMAX panel (DiscoveRx)

GRK4 = target: T24, GRK4 (Homo sapiens, UniProt P32298)
T24 construct: DNA label (for qPCR read-out); purchased DiscoveRx (KINOMEscan scanMAX panel, contract assay)

CAMK2G = target: T25, CAMK2G (Homo sapiens, UniProt Q13555)
T25 construct: DNA label (qPCR read-out); purchased KINOMEscan (ScanMAX panel service)

SRPK2 = target: T26, SRPK2 (Homo sapiens, UniProt P78362)
T26 construct: purchased KINOMEscan (DiscoveRx)
T26 sequence (P78362 whole entry): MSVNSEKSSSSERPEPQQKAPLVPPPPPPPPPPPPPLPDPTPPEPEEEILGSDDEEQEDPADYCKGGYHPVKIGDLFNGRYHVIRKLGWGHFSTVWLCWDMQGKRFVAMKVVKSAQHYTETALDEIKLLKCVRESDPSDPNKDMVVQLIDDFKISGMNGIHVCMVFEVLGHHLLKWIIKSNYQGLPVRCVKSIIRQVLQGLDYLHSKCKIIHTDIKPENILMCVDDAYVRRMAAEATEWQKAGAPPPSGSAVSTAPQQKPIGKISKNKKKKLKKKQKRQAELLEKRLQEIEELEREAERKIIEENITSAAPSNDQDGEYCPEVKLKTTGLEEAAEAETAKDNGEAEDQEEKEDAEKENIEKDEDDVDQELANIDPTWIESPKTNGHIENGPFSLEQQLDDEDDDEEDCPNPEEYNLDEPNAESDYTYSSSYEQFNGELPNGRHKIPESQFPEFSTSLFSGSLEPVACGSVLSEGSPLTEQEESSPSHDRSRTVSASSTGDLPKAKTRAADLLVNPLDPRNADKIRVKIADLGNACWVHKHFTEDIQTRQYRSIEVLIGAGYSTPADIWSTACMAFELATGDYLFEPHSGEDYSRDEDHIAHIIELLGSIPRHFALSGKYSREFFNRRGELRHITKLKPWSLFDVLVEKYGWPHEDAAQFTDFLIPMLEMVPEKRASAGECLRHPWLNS

FLT3 = target: T27, FLT3 (Homo sapiens, UniProt P36888)
T27 construct: purchased DiscoveRx (KINOMEscan scanMAX panel)

ULK1 = target: T28, ULK1 (Homo sapiens, UniProt O75385)
T28 construct: DNA label (for qPCR read-out); purchased DiscoveRx (KINOMEscan scanMAX panel)

IKK-epsilon = target: T29, IKK-epsilon (Homo sapiens, UniProt Q14164)
T29 construct: DNA label (qPCR read-out); purchased KINOMEscan (DiscoveRx) ScanMAX panel

GAK = target: T30, GAK (Homo sapiens, UniProt O14976)
T30 construct: purchased KINOMEscan (DiscoveRx)

ALK(L1196M) = target: T31, ALK(L1196M) (Homo sapiens, UniProt Q9UM73, L1196M)
T31 construct: DNA label (qPCR read-out); purchased KINOMEscan scanMAX panel (DiscoveRx)
T31 sequence (Q9UM73 19-1620 L1196M): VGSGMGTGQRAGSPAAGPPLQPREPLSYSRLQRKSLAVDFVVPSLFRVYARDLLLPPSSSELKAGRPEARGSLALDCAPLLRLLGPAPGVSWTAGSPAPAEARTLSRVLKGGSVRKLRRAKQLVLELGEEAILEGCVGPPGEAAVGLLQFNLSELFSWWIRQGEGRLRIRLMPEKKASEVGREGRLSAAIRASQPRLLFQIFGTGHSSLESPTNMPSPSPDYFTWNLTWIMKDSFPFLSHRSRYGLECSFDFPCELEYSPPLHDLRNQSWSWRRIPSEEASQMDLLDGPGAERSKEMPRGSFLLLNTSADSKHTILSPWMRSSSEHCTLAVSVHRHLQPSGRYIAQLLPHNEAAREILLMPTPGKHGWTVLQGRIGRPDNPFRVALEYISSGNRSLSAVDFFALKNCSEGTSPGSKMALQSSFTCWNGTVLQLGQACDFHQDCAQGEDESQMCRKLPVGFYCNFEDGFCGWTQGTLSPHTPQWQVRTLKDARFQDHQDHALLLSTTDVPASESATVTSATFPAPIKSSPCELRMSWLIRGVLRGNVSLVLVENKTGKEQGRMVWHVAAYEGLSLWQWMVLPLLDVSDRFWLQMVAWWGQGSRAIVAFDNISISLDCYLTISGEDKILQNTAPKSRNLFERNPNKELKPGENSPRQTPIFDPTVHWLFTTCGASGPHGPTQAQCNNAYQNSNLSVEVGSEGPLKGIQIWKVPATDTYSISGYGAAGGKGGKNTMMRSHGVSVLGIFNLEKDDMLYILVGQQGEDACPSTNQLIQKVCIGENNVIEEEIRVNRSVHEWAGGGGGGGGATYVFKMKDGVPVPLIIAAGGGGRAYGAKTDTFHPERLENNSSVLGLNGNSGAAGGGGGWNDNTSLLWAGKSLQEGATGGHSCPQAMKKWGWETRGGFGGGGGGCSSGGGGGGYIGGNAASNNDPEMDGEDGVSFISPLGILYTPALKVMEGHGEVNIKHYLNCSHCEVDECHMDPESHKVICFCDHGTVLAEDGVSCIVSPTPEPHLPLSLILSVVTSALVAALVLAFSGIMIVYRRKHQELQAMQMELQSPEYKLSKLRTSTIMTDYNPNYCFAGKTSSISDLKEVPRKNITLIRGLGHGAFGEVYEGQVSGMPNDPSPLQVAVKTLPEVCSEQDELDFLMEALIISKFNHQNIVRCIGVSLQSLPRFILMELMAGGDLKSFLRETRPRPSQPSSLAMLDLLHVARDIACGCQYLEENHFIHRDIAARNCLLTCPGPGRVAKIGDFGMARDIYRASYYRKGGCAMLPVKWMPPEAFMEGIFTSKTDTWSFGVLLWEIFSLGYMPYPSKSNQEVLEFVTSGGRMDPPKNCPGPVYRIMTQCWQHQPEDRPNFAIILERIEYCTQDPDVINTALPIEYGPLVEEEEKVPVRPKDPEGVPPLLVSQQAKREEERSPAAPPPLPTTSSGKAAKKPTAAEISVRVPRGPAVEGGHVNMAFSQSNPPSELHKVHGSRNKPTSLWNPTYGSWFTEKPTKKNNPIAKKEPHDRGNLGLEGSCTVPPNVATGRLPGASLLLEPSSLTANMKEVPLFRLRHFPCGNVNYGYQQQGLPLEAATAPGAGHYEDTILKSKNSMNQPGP

CDK4-cyclinD3 = target: T32, CDK4-cyclinD3 (Homo sapiens, UniProt P11802)
T32 construct: purchased DiscoverX (KINOMEscan service)

GRK3 = target: T33, GRK3 (Homo sapiens, UniProt P35626)
T33 construct: DNA label (for qPCR read-out); purchased DiscoveRx (KINOMEscan scanMAX panel, contract assay)

RET(V804L) = target: T34, RET(V804L) (Homo sapiens, UniProt P07949, V804L)
T34 construct: purchased DiscoveRx (KINOMEscan scanMAX panel)

MAPKAPK2 = MAPKAPK2 (Homo sapiens, UniProt P49137)
Sequence of MAPKAPK2 (P49137 whole entry): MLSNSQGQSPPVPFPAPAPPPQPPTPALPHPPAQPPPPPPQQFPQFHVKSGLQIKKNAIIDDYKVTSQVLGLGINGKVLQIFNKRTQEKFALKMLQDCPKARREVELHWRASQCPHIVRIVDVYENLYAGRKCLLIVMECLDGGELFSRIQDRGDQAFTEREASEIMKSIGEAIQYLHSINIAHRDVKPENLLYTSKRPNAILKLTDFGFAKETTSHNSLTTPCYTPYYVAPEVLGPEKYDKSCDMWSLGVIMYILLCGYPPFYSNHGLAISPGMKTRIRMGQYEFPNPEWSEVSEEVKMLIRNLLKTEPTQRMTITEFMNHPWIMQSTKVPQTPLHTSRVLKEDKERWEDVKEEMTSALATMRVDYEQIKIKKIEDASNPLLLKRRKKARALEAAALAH

PRKX = target: T35, PRKX (Homo sapiens, UniProt P51817)
T35 construct: purchased DiscoveRx (KINOMEscan scanMAX panel)

Row | SMILES | % Ctrl (IKK-alpha) | % Ctrl (DDR2) | % Ctrl (SRC) | % Ctrl (TNK2) | % Ctrl (PIM2) | % Ctrl (KIT (D816H)) | % Ctrl (MYLK4) | % Ctrl (AKT3) | % Ctrl (NIK) | % Ctrl (BMPR1B) | % Ctrl (PIKFYVE) | % Ctrl (SGK3) | % Ctrl (CSNK1G2) | % Ctrl (CLK2) | % Ctrl (EGFR) | % Ctrl (MELK) | % Ctrl (MEK3) | % Ctrl (TTK) | % Ctrl (TIE1) | % Ctrl (SgK110) | other results
1 | CN(C)C(=O)c1ccc(N2CCCN(c3ccnc4sc(C(N)=O)c(N)c34)CC2)cc1 [15u, 3-amino-4-(4-(4-(dimethylcarbamoyl)phenyl)-1,4-diazepan-1-yl)thieno[2,3-b]pyridine-2-carboxamide] | 77 % Ctrl | 80 % Ctrl | 100 % Ctrl | 100 % Ctrl | 85 % Ctrl | 91 % Ctrl | 100 % Ctrl | 97 % Ctrl | 100 % Ctrl | 100 % Ctrl | 91 % Ctrl | 79 % Ctrl | 77 % Ctrl | 75 % Ctrl | 100 % Ctrl | 75 % Ctrl | 68 % Ctrl | 83 % Ctrl | 90 % Ctrl | 95 % Ctrl | % Ctrl (CSNK1G3): 95 % Ctrl; % Ctrl [1]: 94 % Ctrl; % Ctrl (LIMK2): 91 % Ctrl; % Ctrl (BRSK1): 86 % Ctrl; % Ctrl (GRK4): 62 % Ctrl; % Ctrl (CAMK2G): 100 % Ctrl; % Ctrl (SRPK2): 93 % Ctrl; % Ctrl (FLT3): 94 % Ctrl; % Ctrl (ULK1): 96 % Ctrl; % Ctrl (IKK-epsilon): 100 % Ctrl; % Ctrl (GAK): 88 % Ctrl; % Ctrl (ALK(L1196M)): 96 % Ctrl; % Ctrl (CDK4-cyclinD3): 95 % Ctrl; % Ctrl (GRK3): 99 % Ctrl; % Ctrl (RET(V804L)): 100 % Ctrl; % Ctrl (MAPKAPK2): 91 % Ctrl; % Ctrl (PRKX): 94 % Ctrl
2 | [2H]C([2H])([2H])N(C(=O)c1ccc(N2CCCN(c3ccnc4sc(C(N)=O)c(N)c34)CC2)cc1)C([2H])([2H])[2H] [15u_D6, 3-amino-4-(4-(4-(bis(methyl-d3)carbamoyl)phenyl)-1,4-diazepan-1-yl)thieno[2,3-b]pyridine-2-carboxamide] | 90 % Ctrl | 52 % Ctrl | 96 % Ctrl | 100 % Ctrl | 89 % Ctrl | 66 % Ctrl | 94 % Ctrl | 100 % Ctrl | 97 % Ctrl | 62 % Ctrl | 98 % Ctrl | 80 % Ctrl | 69 % Ctrl | 83 % Ctrl | 87 % Ctrl | 84 % Ctrl | 47 % Ctrl | 80 % Ctrl | 96 % Ctrl | 100 % Ctrl | % Ctrl (CSNK1G3): 80 % Ctrl; % Ctrl [1]: 75 % Ctrl; % Ctrl (LIMK2): 98 % Ctrl; % Ctrl (BRSK1): 97 % Ctrl; % Ctrl (GRK4): 98 % Ctrl; % Ctrl (CAMK2G): 100 % Ctrl; % Ctrl (SRPK2): 100 % Ctrl; % Ctrl (FLT3): 86 % Ctrl; % Ctrl (ULK1): 72 % Ctrl; % Ctrl (IKK-epsilon): 100 % Ctrl; % Ctrl (GAK): 94 % Ctrl; % Ctrl (ALK(L1196M)): 92 % Ctrl; % Ctrl (CDK4-cyclinD3): 97 % Ctrl; % Ctrl (GRK3): 87 % Ctrl; % Ctrl (RET(V804L)): 100 % Ctrl; % Ctrl (MAPKAPK2): 99 % Ctrl; % Ctrl (PRKX): 95 % Ctrl
